Data as given in patent US20200246403A1, “YEAST EXTRACT HAVING DIABETES PREVENTION EFFECT” (MITSUBISHI CORPORATION LIFE SCIENCES LIMITED, priority 2016, published 2020).

Test system: rat myoblasts (L6 cells)
Assay: Measurement of glucose uptake activity in rat myoblasts (L6 cells), 2-NBDG fluorescence
Type: cell-based
Details: insulin final concentration 100 nM (positive control), 100 μM 2-NBDG, 20 minutes
Description: Test 1: Measurement of Glucose Uptake Activity in Rat Myoblasts (L6 Cells)
L6 cells were seeded (1×10^4 cells/well) in a 96-well plate with a D-MEM medium (Dulbecco/Vogt modified Eagle's minimal essential medium) containing 10% fetal bovine serum, and pre-cultured for 48 hours (5% CO2, 37° C.) Then, the medium was replaced with a D-MEM medium containing 2% horse serum and culture was performed for 96 hours (5% CO2, 37° C.) to induce differentiation. Subsequently, the medium was replaced with a serum-free D-MEM medium, and synchronous culture was performed for 4 hours (5% CO2, 37° C.). Thereafter, the wells were washed with a KRPH buffer (Krebs Ringer Phosphate Hepes buffer), and 100 μL of a sample solution (final concentration 1 mg/mL or 5 mg/mL) dissolved in a KRPH buffer containing 100 μM 2-NBDG (2-deoxy-2-[(7-nitro-2,1,3-benzoxadiazol-4-yl)amino]-D-glucose) was added and incubated for 20 minutes (5% […], 37° C.). […] The fluorescence intensity of 2-NBDG, as the fluorescent glucose analogue incorporated into the cells, was measured at an excitation wavelength of 470 nm and a detection wavelength of 550 nm using a microplate reader. The glucose uptake activity was determined based on the following formula as the ratio of the fluorescence intensity (FS) in the case of making the sample solution react when the fluorescence intensity (FC) of the control was taken as 100. […]

insulin
Glucose uptake activity: significantly increased
